Legend:
[1] = tested on: Karpas 299 cells; experiment: Flow cytometry of cell surface HLA and checkpoint ligands on Karpas 299 cells; format: cell-based, human
Experimental: (§1) If adherent cells, they were seeded one day before treatment.

[2] = tested on: SUDHL-1 cells; experiment: Flow cytometry of cell surface HLA on SUDHL-1 cells; format: cell-based, human; conditions: SUDHL-1, 72 hrs, increasing concentrations
Experimental: as §1

[3] = tested on: pERK in Karpas 299 cells; experiment: Western blot of pERK in Karpas 299 cells; format: cell-based, human; conditions: Karpas 299, 3 hrs
Experimental: (§2) Cells were seeded in a 60 mm dish or 6 well plates. After the appropriate time point, cells were harvested and lysed and protein was quantified by a Lowry assay (Bio-Rad DC Protein Assay; #5000116). Protein levels were normalized and run on SDS PAGE gels (Bio-Rad). Protein was transferred to a nitrocellulose membrane using semi-dry transfer. Membrane was blocked and incubated with respective antibodies. When needed, secondary antibodies with HRP were incubated for 1 hr.
(§3) Cells were seeded in a 60 mm dish or 6 well plates. After the appropriate time point, cells were harvested, lysed in RIPA buffer (Thermo Instruments) and protein concentration was quantified by a Lowry assay (using the Bio-Rad DC Protein Assay; #5000116 on a Spectramax device from Molecular Devices). Protein loading levels were equalized per lane and separated on SDS gels (Bio-Rad). Protein was transferred to a nitrocellulose membrance using semi-dry transfer (BioRad). Membranes were blocked with Omniblock (American Bio) and incubated with respected antibodies. When needed, secondary antibodies with HRP were incubated for 1 hr.

[4] = tested on: pERK in SUDHL-1 cells; experiment: Western blot of pERK in SUDHL-1 cells; format: cell-based, human; conditions: SUDHL-1, 3 hrs
Experimental: as §2, §3

[5] = tested on: Karpas 299 tumors; experiment: Karpas 299 subcutaneous tumors in mice, tumor HLA and PD-L1 by flow cytometry; format: in vivo
Experimental: Female NSG (NOD.Cg-Prkdc^scidIl2rg^tm1Wj1/SzJ) and NRG (NOD.Cg-Rag1^tm1MomIl2rg^tm1Wj1/SzJ) mice were purchased from the Jackson Laboratory or MSKCC breeding facility at 5-10 weeks old. For RET and ALK experiments, 2.5-6×10^6 tumor cells were subcutaneously injected into the flank of mice and when tumors were palpable, mice were treated daily with drug or vehicles through oral gavage. At day 7, tumors were harvested and flow cytometry was run to determine effect of inhibitors on HLA and PD-L1 on the tumor cells.
The highly immunodeficient NRG (NOD-Rag1null IL2rgnull) mice were subcutaneously injected with 2.5×10^6 luciferase tagged TPC1 cells in their right flank. […] Afterwards, cells were immediately harvested and stained with antibodies against HLA-A*02:01 and HLA-ABC.
All animal experiments were conducted in accordance with and the approval of the MSKCC IACUC (Institutional Animal Care and Use Committee) protocols. Female NSG (NOD. Cg-Prkdc^scidIl2rg^tm1Wj1/SzJ) and NRG (NOD.Cg-Rag1^tm1MomIl2rg^tm1Wj1/SzJ) mice were purchased from the Jackson Laboratory at 5-10 weeks old. For experiments in vivo with RET and ALK, 2.5-6×10^6 tumor cells in PBS were subcutaneously injected into the flank of mice. When tumors were palpable (2-3 mm), mice were treated daily with drugs or vehicles through oral gavage of drugs in 200 ul of water. At day 4 or 7, tumors were harvested and flow cytometry was conducted to determine the effect of inhibitors on HLA and PD-L1 on the tumor cells. […] TPC1 cells were transduced with luciferase and GFP on an SFG vector and this allowed gating of the tumor cells in flow cytometry.

[6] = tested on: Karpas299 cells; experiment: Luminex cytokine secretion, Karpas299 cells; format: cell-based, human; conditions: Karpas299, 100 nm alectinib
Experimental: Supernatant media were harvested after treatment and analyzed by the Luminex device (Luminex Corporation, Austin, Tex.) for relevant cytokine secretion. […] On the left side of each panel is data after 24 hours. On the right side of each panel is data after 48 hours. […] The data points shown in this figure are in pairs for each condition. The data point pairs for each time point are, from left to right: DMSO, Rux, Alec, IFNg, and IFNg+Rux.

[7] = tested on: SUP-M2 cells; experiment: PD-L1 levels in vitro on SUP-M2 cells
Experimental: 5×10^4 cells were seeded in a 12 well plate and treated with drug for 72 hrs. Adherent cells were seeded one day before treatment. At 72 hrs, cells were harvested, washed with PBS and incubated on ice with appropriate fluorophore conjugated antibodies diluted in FACS buffer for 1 hr. Gating strategy: Cells were then washed and incubated 30 min with a viability dye (propidium iodide at 1 ug/mL) and live cells only were analyzed by on a Guava flow cytometer with FlowJo software.

[8] = tested on: TPC1 cells; experiment: Flow cytometry of cell surface HLA and checkpoint ligands on TPC1 cells; format: cell-based, human; conditions: TPC1, 100 nM, 72 hours
Experimental: as §1

[9] = tested on: TPC1 cells; experiment: Mass spectrometry of eluted HLA class I presented peptides, TPC1 cells; format: cell-based, human
Experimental: After 72 hrs, cells were harvested, washed, lysed. The lysate was run through an activated Sepharose-CNBr column coupled to the W6/32 antibody to bind HLA-A,B,C from the cell. The peptides bound by those HLAs and captured on the column were then eluted and mass spectrometry was run on those peptides.
Immunopurification affinity columns were prepared as described previously (Bassani-Sternberg et al., 2015, Mol Cell Proteomics 14(3):658-673). In brief, 40 mg of Cyanogen bromide-activated-Sepharose® 4B (Sigma-Aldrich, Cat #C9142) was activated with 1 mM hydrochloric acid (Sigma-Aldrich, Cat #320331) for 30 min. Subsequently, 0.5 mg of W6/32 antibody (BioXCell, BE0079; RRID: AB 1107730) was coupled to sepharose in presence of binding buffer (150 mM sodium chloride, 50 mM sodium bicarbonate, pH 8.3; sodium chloride: Sigma-Aldrich, Cat #S9888, sodium bicarbonate: Sigma-Aldrich, Cat #56014) for at least 2 hours at room temperature. Sepharose was blocked for 1 h with glycine (Sigma-Aldrich, Cat #410225). Columns were equilibrated with PBS for 10 min. […]. Afterwards, cells were lysed in 1 ml 1% CHAPS (Sigma-Aldrich, Cat #C3023) in PBS, supplemented with 1 tablet of protease inhibitors (cOmplete, Cat #11836145001) for 1 hour at 4° C. This lysate was spun down for 1 hour at 20,000 g at 4° C. Supernatant was run over the affinity column through peristaltic pumps at 1 ml/min overnight at 4° C. Affinity columns were washed with PBS for 15 min, run dry, and HLA complexes subsequently eluted three times with 200 μl 1% trifluoracetic acid (TFA, Sigma/Aldrich, Cat #02031). For separation of HLA ligands from their HLA complexes tC18 columns (Sep-Pak tC18 1 cc VacCartridge, 100 mg Sorbent per Cartridge, 37-55 μm Particle Size, Waters, Cat #WAT036820) were prewashed with 80% acetonitrile (ACN, Sigma-Aldrich, Cat #34998) in 0.1% TFA and equilibrated with two washes of 0.1% TFA. Samples were loaded, washed again with 0.1% TFA and eluted in 400 μl 30% ACN in 0.1% TFA. Sample volume was reduced by vacuum centrifugation for mass spectrometry analysis.
Samples were analyzed by a high resolution/high accuracy LC-MS/MS (Lumos Fusion, Thermo Fisher). Peptides were desalted using ZipTips (Sigma Millipore, Cat. #ZTC18S008) according to manufactures instructions and concentrated using vacuum centrifugation prior to being separated using direct loading onto a packedin-emitter C18 column (75 um ID/12 cm, 3 μm particles, Nikkyo Technos Co., Ltd. Japan). The gradient was delivered at 300 nl/min increasing linear from 2% Buffer B (0.1% formic acid in 80% acetonitrile)/98% Buffer A (0.1% formic acid) to 30% Buffer B/70% Buffer A, over 70 minutes. MS and MS/MS were operated at resolutions of 60,000 and 30,000, respectively. Only charge states 1, 2 and 3 were allowed. 1.6 Th was chosen as the isolation window and the collision energy was set at 30%. For MS/MS, the maximum injection time was 100 ms with an AGC of 50,000.
Mass spectrometry data was processed using Byonic software (version 2.7.84, Protein Metrics, PaloAlto, Calif.) through a custom-built computer server equipped with 4 Intel Xeon E5-4620 8-core CPUs operating at 2.2 GHz, and 512 GB physical memory (Exxact Corporation, Freemont, Calif.). Mass accuracy for MS1 was set to 10 ppm and to 20 ppm for MS2, respectively. Digestion specificity was defined as unspecific and only precursors with charges 1, 2, and 3 and up to 2 kDa were allowed. Protein FDR was disabled to allow complete assessment of potential peptide identifications. Oxidization of methionine, N-terminal acetylation, phosphorylation of serine, threonine and tyrosine were set as variable modifications for all samples. All samples were searched against the UniProt Human Reviewed Database (20,349 entries, uniprot.org, downloaded June 2017). […]

[10] = tested on: TPC1 cells; experiment: RNA-seq of TPC1 cells after RET inhibitor treatment; format: cell-based, human; conditions: TPC1, 72 hours
Experimental: Purified polyA mRNA was subsequently fragmented, and first and second strand cDNA synthesis performed using standard Illumina mRNA TruSeq library preparation protocols. Double stranded cDNA was subsequently processed for TruSeq dual-index Illumina library generation. For sequencing, pooled multiplexed libraries were run on a HiSeq 2500 machine on RAPID mode. Approximately 10 million 76 bp single-end reads were retrieved per replicate condition. Resulting RNA-Seq data was analyzed by removing adaptor sequences using Trimmomatic, aligning sequencing data to GRCh37.75(hg19) with STAR, and genome wide transcript counting using HTSeq to generate a RPKM matrix of transcript counts. This RPKM matrix was further log (log 2) transformed and normalized per gene to obtain the Z-score. Differential gene expression was analyzed by looking at fold changes between experimental conditions.

[11] = Karpas 299 tumors, daily oral gavage
[12] = TPC1, 10 nM AST487 or 100 nM cabozantinib

In the case of `CCc1cc2c(cc1N1CCC(N3CCOCC3)CC1)C(C)(C)c1[nH]c3cc(C#N)ccc3c1C2=O` [alectinib], the “PD-L1 levels in vitro” value ([1]; Karpas 299) is reported as “dramatic decreases in PD-L1 were seen in vitro”, the “surface HLA-E levels” value ([1]; Karpas 299) is reported as “did not change” and the “cell surface HLA-A,B,C” value ([1]; Karpas 299, 72 hrs, increasing concentrations) is reported as “upregulates cell surface HLA”. The “HLA-A02 (BB7-FITC) surface level” value ([1]; Karpas299, alectinib 100 nM, 72 hours) was “led to upregulation of HLA”, the “cell surface HLA-A,B,C” value [2] was “upregulates cell surface HLA” and the pERK levels [3] was “shut down pERK expression”. For the same compound, the pERK levels [4] was “shut down pERK expression”, the “drop of PD-L1” value ([5]; Karpas 299 tumors in NSG mice) was “approximately 75%” and the “tumor PD-L1 levels in vivo” value [5, 11] was “PD-L1 decreased with increasing doses”. For the same compound, the “tumor cell surface HLA-A,B,C in vivo” value [5, 11] was “increased modestly in a dose-dependent manner”, the “IFNα, IFNγ, IL4 secretion” value [6] was “had no effect on IFNα, IFNγ, IL4” and the “IL6 and TNFα secretion” value [6] was “reduced IL6 and TNFα secretion”. The “PD-L1 levels in vitro” value [7] was “dramatic decreases in PD-L1 were seen in vitro”.

For `COc1cc2nccc(Oc3ccc(NC(=O)C4(C(=O)Nc5ccc(F)cc5)CC4)cc3)c2cc1OC` [cabozantinib], the “increase in surface HLA (pan-HLA)” value [8] was about 4 fold, the “increase in surface HLA-A*02” value [8] was 4 fold and the “runs TEIPP peptide was found in (n = 3)” value ([9]; ALFSFVTAL (SEQ ID NO: 11)) was 0. For the same compound, the “runs TEIPP peptide was found in (n = 3)” value ([9]; FLGPWPAAS (SEQ ID NO: 12)) was 1, the “runs TEIPP peptide was found in (n = 3)” value ([9]; FLSELQYYL (SEQ ID NO: 13)) was 0 and the “runs TEIPP peptide was found in (n = 3)” value ([9]; FLYPFLSHL (SEQ ID NO: 14)) was 0. For the same compound, the “runs TEIPP peptide was found in (n = 3)” value ([9]; ILEYLTAEV (SEQ ID NO: 15)) was 0, the “runs TEIPP peptide was found in (n = 3)” value ([9]; LLALAAGLAV (SEQ ID NO: 16)) was 0 and the “runs TEIPP peptide was found in (n = 3)” value ([9]; LLLDVPTAAV (SEQ ID NO: 17)) was 1. For the same compound, the “runs TEIPP peptide was found in (n = 3)” value ([9]; LLLSAEPVPA (SEQ ID NO: 18)) was 0, the “runs TEIPP peptide was found in (n = 3)” value ([9]; LLWGRQLFA (SEQ ID NO: 19)) was 0 and the “runs TEIPP peptide was found in (n = 3)” value ([9]; LSEKLERI (SEQ ID NO: 20)) was 0. The “runs TEIPP peptide was found in (n = 3)” value ([9]; LTLLGTLWGA (SEQ ID NO: 21)) was 0, the “runs TEIPP peptide was found in (n = 3)” value ([9]; SVLWLGALGL (SEQ ID NO: 22)) was 0 and the “runs TEIPP peptide was found in (n = 3)” value ([9]; TLLGASLPA (SEQ ID NO: 23)) was 0. The “new peptides (only peptides found in all three runs counted)” value [9, 12] was 492, the “unique peptides not present in the DMSO group (found in at least one run)” value [9, 12] was 1642 and the unique ligands presented ([9]; TPC1, 10 nM AST487 or 100 nM cabozantinib, three runs pooled, DMSO 4211) was 4850. The “increase in unique peptides vs DMSO” value ([9]; TPC1, three runs pooled) was 15%, the “unique HLA ligands detected in all 3 runs” value ([9]; TPC1, DMSO 195) was 639 and the “runs TEIPP peptide was found in (n = 3)” value ([9]; VIIKPLVWV (SEQ ID NO: 24)) was 0. For the same compound, the “runs TEIPP peptide was found in (n = 3)” value ([9]; VLAVFIKAV (SEQ ID NO: 25)) was 0, the “runs TEIPP peptide was found in (n = 3)” value ([9]; VLLDHLSLA (SEQ ID NO: 26)) was 0 and the “genes upregulated at least two-fold” value [10] was 50.

Source: patent US20210379046A1, “Methods of Treating Diseases Using Kinase Modulators” (Memorial Sloan Kettering Cancer Center, priority 2018, published 2021)
